From ChEMBL document CHEMBL1275534, “Is 60 days of ciprofloxacin administration necessary for postexposure prophylaxis for Bacillus anthracis?” (Antimicrob Agents Chemother, 2008)
Values after ≈ are worked out from the molar mass of the structure shown.

Columns and labels:
[1] = system: Bacillus anthracis; experiment: Antibacterial activity against pX01 and pX02 deficient Bacillus anthracis delta-Sterne after 24 hrs; format: functional
[2] = system: Bacillus anthracis; experiment: Effect on growth of pX01 and pX02 deficient Bacillus anthracis delta-Sterne infected in hollow-fiber pharmacodynamic model assessed as maximal vegetative plus spore phase population size at 500 mg every 12 hrs; format: functional

## O=C(O)c1cn(C2CC2)c2cc(N3CCNCC3)c(F)cc2c1=O [CIPROFLOXACIN]
[1]
  MBC: 1 µg/mL (≈ 3.02 µM)
[2]
  log10CFU/ml: 554300000
